Assays:
[1] = peroral acute toxicity; conditions: in vivo, po, four-week-old male mouse
[2] = tested on: potted young oranges (variety: Unshu); test: Phytotoxicity of treating compound, Citrus Scab test; conditions: 250 ppm
Protocol: (§1) The resulting solution is sprayed, in an amount corresponding to 600 l/10a per pot, on potted young oranges (variety: Unshu) immediately after fresh leaves are unfolded. After one day, the potted young oranges are inoculated with Elsinoe fawcetti, by spraying a suspension of crushed hyphae thereof containing 50 crushed hyphae per microscopic field (magnification: X100). The suspension is prepared by culturing Elsinoe fawcetti on potato medium at a temperature of 25° C. for 30 days to form hyphae and suspending it in sterilized water.
(§2) After inoculation, the potted young oranges are allowed to stand at a temperature of 25° C. in a moist room for two days and then transferred to a greenhouse. Twenty-three days after inoculation, the leaf infested by citrus scab is examined, i.e., number of pathologic spots on a leaf is examined and the numbers of leaves infested by cirtrus scab are counted. Then, an infestation rate is calculated according to the following equation:

[3] = tested on: potted potatoes (variety: Chippewa); conditions: 500 ppm
[4] = tested on: TA-98; test: mutagenicity test (Ames test), TA-98; format: cell-based
[5] = tested on: Pseudoperonospora cubensis; test: Cucumber Downy Mildew-controlling Test; format: in vivo; conditions: 1000 ppm, five days after inoculation
Excerpt: Cucumber Downy Mildew (Pseudoperonospora cubensis)-controlling Test […] After one day, the cucumbers are inoculated with Pseudoperonospora cubensis, by spraying a suspension thereof containing 30 spores per microscopic field (magnification: […]), which are collected from the leaves infested by cucumber downy mildew. […] In this test, one cucumber is planted in each pot and three pots are used.

[6] = tested on: potted apples (variety: Star King); test: Test of Phytotoxicity to Apples; conditions: 75% Wettable Powders, dilution × 750, 600 l/10 a, two weeks
Protocol: The resulting solution of wettable powders is sprayed, in an amount corresponding to 600 l/10a per pot, on potted apples (variety: Star King) immediately after fresh leaves are unfolded. After air-drying, the potted apples are allowed to stand in a greenhouse. Two weeks after the spray treatment, the phytotoxicity, of the compound according to the present invention, to the potted apples is examined.
For comparison, the above test is also carried out using a reference compound (fluoroimide) and plain water.

[7] = tested on: Alternaria kikuchiana; test: Spore-germination Inhibiting Test; format: cell-based; conditions: 10 ppm, 27° C., 20 hours
Protocol: Spore-germination Inhibiting Test for Alternaria kukuchiana An apricot medium is inoculated with Alternaria kikuchiana and incubated at a temperature of 27° C. for 7-10 days to form conidia on the medium. […] 0.02 Ml of the prepared spore suspension containing the compound according to the present invention is dropped on a slide glass and incubated at a temperature of 27° C. under moist conditions for 20 hours. Thereafter, whether or not the spores germinate is examined under a microscope and the spore-germination rate is then calculated.

[8] = tested on: Venturia inaequalis; test: Apple Scab-controlling Test; format: in vivo; conditions: 500 ppm
[9] = tested on: TA-100; test: mutagenicity test (Ames test), TA-100; format: cell-based
[10] = tested on: potted young oranges (variety: Unshu); test: Phytotoxicity of treating compound, Citrus Melanose test; conditions: 500 ppm
[11] = tested on: potted young oranges (variety: Unshu); test: Phytotoxicity of treating compound, residual activity test; conditions: 1000 ppm, 23 mm/hr of rain
[12] = tested on: Alternaria kikuchiana; test: Pear Black Spot-controlling Test; conditions: 500 ppm, six days after inoculation
Protocol: Pear Black Spot (Alternaria kikuchiana)-controlling Test
(§3) The resulting solution is sprayed on unfolded leaves of potted young pears (variety: Niju-seiki) in an amount corresponding to 600 l/10a per pot. After air-drying, the unfolded leaves are inoculated with Alternaria kikuchiana, by spraying a suspension of conidia thereof containing 30 conidia per microscopic field (magnification: X200).
(§4) After inoculation, the potted young pears are allowed to stand at a temperature of 27° C. in a moist room for one day and then transferred to a greenhouse. Six days after inoculation, the leaf area infested by pear black spot, i.e., the area of pathologic spots on a leaf is examined on 5 unfolded leaves per pot and an average infestation rate is then calculated.

[13] = tested on: Phytophthora infestans; format: in vivo; conditions: 500 ppm
[14] = tested on: Diaporthe citri; test: Citrus Melanose-controlling Test; format: in vivo; conditions: 500 ppm
[15] = tested on: potted apples (variety: Star King); test: Phytotoxicity of treating compound, Apple Scab test; conditions: 500 ppm
[16] = tested on: Diaporthe citri; test: Test of Residual Activity against Citrus Melanose; format: in vivo; conditions: 1000 ppm, 23 mm/hr of rain
[17] = tested on: potted pears (variety: Niju-seiki); test: Test of Phytotoxicity to Pears; format: in vivo, pear; conditions: 75% Wettable Powders, two weeks
Excerpt: Test of Phytotoxicity to Pears
After air-drying, the potted pears are allowed to stand in a greenhouse.

[18] = tested on: Alternaria mali; test: Apple Alternaria Leaf Spot-controlling Test; format: in vivo; conditions: 500 ppm, six days after inoculation
[19] = ichthyotoxicity; conditions: killifish, in vivo; read-out: Tlm48
[20] = tested on: potted young pears (variety: Niju-seiki); test: Phytotoxicity of treating compound, Pear Black Spot test; conditions: 500 ppm, damaged area on leaves
Protocol: as §3, §4
*The phytotoxicity of the treating compound is evaluated according to the

[21] = tested on: Elsinoe fawcetti; test: Citrus Scab-controlling Test; conditions: 250 ppm
Protocol: as §1, §2
Infestation Rate=(Σnf/3N)×100
wherein n is the number of the infested leaves, f is an infestation index and N is the total number of the examined leaves. The infestation index is as follows.
For comparison, the above test is also carried out using a reference compound (benomyl) and plain water.

[22] = index 3 = 51-100% infested area

O=C1C(Cl)=C(Cl)C(=O)N1c1ccc(OC(F)F)cc1 [compound 3, 2,3-dichloro-N-(p-difluoromethoxyphenyl)maleimide]
271 leaves: Number of Leaves Showing Infestation Index 0 ([14]; index 0 = 0-25% infested area, 24 days)
> 10 µg/mL: LC50 at 48 h [19]
311 leaves: Number of Leaves Showing Each Infestation Index: 0 ([21]; index 0 = 0 spots per leaf)
2 leaves: Number of Leaves Showing Each Infestation Index: 1 ([21]; index 1 = 1-3 spots per leaf)
0.2: Infestation Rate ([21]; 23 days, (Σnf/3N)×100)
0 leaves: Number of Leaves Showing Each Infestation Index: 1 ([8]; index 1 = 1-25% infested area) | Number of Leaves Showing Each Infestation Index: 2 ([8]; index 2 = 26-50% infested area) | Number of Leaves Showing Each Infestation Index: 3 [8, 22] | Number of Leaves Showing Each Infestation Index: 1 ([13]; index 1 = 1-25% infested area) | Number of Leaves Showing Each Infestation Index: 2 ([13]; index 2 = 26-50% infested area) | Number of Leaves Showing Each Infestation Index: 3 [13, 22] | Number of Leaves Showing Infestation Index 1 ([14]; index 1 = 26-50% infested area, 24 days) | Number of Leaves Showing Infestation Index 2 ([14]; index 2 = 51-75% infested area, 24 days) | Number of Leaves Showing Infestation Index 3 ([14]; index 3 = 76-90% infested area, 24 days) | Number of Leaves Showing Infestation Index 4 ([14]; index 4 = 91-100% infested area, 24 days) | Number of Leaves Showing Each Infestation Index: 1 ([16]; index 1 = 26-50% infested area) | Number of Leaves Showing Each Infestation Index: 2 ([16]; index 2 = 51-75% infested area) | Number of Leaves Showing Each Infestation Index: 3 ([16]; index 3 = 76-90% infested area) | Number of Leaves Showing Each Infestation Index: 4 ([16]; index 4 = 91-100% infested area) | Number of Leaves Showing Each Infestation Index: 2 ([21]; index 2 = 4-10 spots per leaf) | Number of Leaves Showing Each Infestation Index: 3 ([21]; index 3 = ≥11 spots per leaf)
20 leaves: Number of Leaves Showing Each Infestation Index: 0 ([13]; index 0 = 0% infested area)
0%: Average Infestation Rate (%) (Based on infested area) [5] | Spore-germination Rate (%) [7] | Infested Leaves (%) ([8]; seven days after inoculation) | Infested Leaves (%) ([13]; six days after inoculation) | Infested Leaves (%) ([14]; 24 days after inoculation) | Infested Leaves (%) ([16]; 24 days after inoculation) | Average Infestation Rate (%) (Based on infested area) [18]
> 300 mg/kg: LD50 [1]
0.6%: Infested Leaves (%) ([21]; 23 days after inoculation)
187 leaves: Number of Leaves Showing Each Infestation Index: 0 ([16]; index 0 = 0-25% infested area)
2%: Average Infestation Rate (%) (Based on infested area) [12]
25 leaves: Number of Leaves Showing Each Infestation Index: 0 ([8]; index 0 = 0% infested area)
0: Infestation Rate ([8]; seven days, (Σnf/3N)×100) | Infestation Rate ([13]; six days, (Σnf/3N)×100) | Infestation Rate ([14]; 24 days, (Σnf/4N)×100) | Infestation Rate ([16]; 24 days, (Σnf/4N)×100)
- (0%): Phytotoxicity of Treating Compound [2] | Phytotoxicity of Treating Compound [3] | Phytotoxicity of Treating Compound [6] | Phytotoxicity of Treating Compound [10] | Phytotoxicity of Treating Compound [11] | Phytotoxicity of Treating Compound [15] | Phytotoxicity of Treating Compound ([17]; dilution × 500, 600 l/10 a) | Phytotoxicity of Treating Compound ([17]; dilution × 750, 600 l/10 a) | Phytotoxicity of Treating Compound [20]
negative: Ames test TA-98 [4] | Ames test TA-100 [9]
